Measurements as given in patent publication US11058114B2, “Use of n-arylamidine-substituted trifluoroethyl sulphoxide derivatives for controlling pests by watering, droplet application, dip application, soil injection or by treating seed” (BAYER CROPSCIENCE AKTIENGESELLSCHAFT, priority 2014, dated 2021).

Key:
[1] = tested on: greenhouse red spider mite (Tetranychus urticae), OP-resistant; assay: Tetranychus urticae spray test, OP-resistant (TETRUR SPRAY); assay type: in vivo; details: bean plants (Phaseolus vulgaris), 100% = all spider mites killed; for pest or weed control at 0.8 ppm / pest or weed control at 4 ppm / pest or weed control at 0.16 ppm: Tetranychus urticae, 336 h, 14 d, read-out: % effect after 14 d
Experimental: Tetranychus urticae—Spray Test; OP-Resistant (TETRUR)
(§1) Solvent: 7 parts by weight of dimethylformamide
Emulsifier: alkylaryl polyglycol ether
To produce a suitable active compound preparation, 1 part by weight of active compound was dissolved using the stated parts by weight of solvent and made up with water containing an emulsifier concentration of 1000 ppm until the desired concentration was attained. To produce further test concentrations, the preparation was diluted with emulsifier-containing water. Ammonium salts and penetrants (rapeseed oil methyl ester) were each added in a concentration of 1000 ppm to the solution of the preparations.
Bean plants (Phaseolus vulgaris) which were heavily infested by all stages of the greenhouse red spider mite (Tetranychus urticae) were sprayed with an active compound preparation of the desired concentration.
(§2) After the desired period of time, the efficacy in % was determined. 100% means that all the spider mites have been killed; 0% means that no spider mites have been killed.

[2] = tested on: greenhouse red spider mite (Tetranychus urticae), OP-resistant; assay: Tetranychus urticae drench test, OP-resistant (TETRUR DRENCH); assay type: in vivo; details: bean plants (Phaseolus vulgaris) in soil pots, 100% = all spider mites killed; for pest or weed control at 0.8 ppm / pest or weed control at 4 ppm / pest or weed control at 0.16 ppm: Tetranychus urticae, in Phaseolus vulgaris, soil, 336 h, 14 d, read-out: % effect after 14 d
Experimental: Tetranychus urticae—Drench Test, OP-Resistant (TETRUR)
as §1
Emulsifier: 2 parts by weight of alkylaryl polyglycol ether
To produce a suitable active compound preparation, 1 part by weight of active compound was mixed with the specified amounts of solvent and emulsifier, and the concentrate was diluted with water to the desired concentration, with the volume of soil which was drenched being taken into account. It was ensured that a concentration of 40 ppm of emulsifier in the soil was not exceeded. To produce further test concentrations, water was used for dilution.
Bean plants (Phaseolus vulgaris), in soil pots, which were heavily infested by all stages of the greenhouse red spider mite (Tetranychus urticae) were watered with an active compound preparation of the desired concentration.
as §2

Row | Structure (SMILES) | pest or weed control at 0.8 ppm [1] [%] | pest or weed control at 4 ppm [1] [%] | pest or weed control at 0.8 ppm [2] [%] | pest or weed control at 4 ppm [2] [%] | % effect after 14 d ([1]; 0.16 ppm) [%] | % effect after 14 d ([2]; 0.16 ppm) [%] | pest or weed control at 0.16 ppm ([1]; 0.16 ppm) [%] | pest or weed control at 0.16 ppm ([2]; 0.16 ppm) [%]
1 | Cc1cc(F)c(/N=C(\N(C)C)C(F)(F)F)cc1[S+]([O-])CC(F)(F)F (centres unmarked) [Ib-01] | 0 | 98 | 100 | 100 | – | – | – | –
2 | Cc1cc(F)c(/N=C(\N)C(F)(F)F)cc1[S+]([O-])CC(F)(F)F (centres unmarked) [Ib-11] | 50 | 95 | 100 | 100 | – | – | – | –
3 | N/C(=N/c1cc([S+]([O-])CC(F)(F)F)c(Cl)cc1Cl)C(F)(F)F (centres unmarked) [Ib-14] | – | – | – | – | 0 | 80 | – | –
4 | N/C(=N/c1ccc(C(F)(F)F)c([S+]([O-])CC(F)(F)F)c1)C(F)(F)F (centres unmarked) [Ib-16] | 40 | – | 100 | – | – | – | 0 | 99
5 | N/C(=N/c1cc([S+]([O-])CC(F)(F)F)c(Cl)cc1Cl)C(F)(F)F (centres unmarked) [Ib-17] | 98 | – | 100 | – | – | – | 0 | 98
6 | N/C(=N/c1cc([S+]([O-])CC(F)(F)F)c(Br)cc1Br)C(F)(F)F (centres unmarked) [Ib-18] | 50 | – | 99 | – | – | – | 0 | 99
7 | Cc1cc(F)c(/N=C(\N)C2(F)CC2)cc1[S+]([O-])CC(F)(F)F (centres unmarked) [Ib-19] | 30 | – | 98 | – | – | – | 0 | 98
8 | CN/C(=N/c1cc([S+]([O-])CC(F)(F)F)c(Cl)cc1Cl)C(F)(F)F (centres unmarked) [Ib-21] | 90 | – | 95 | – | – | – | 0 | 80
9 | Cc1cc(F)c(/N=C(\N)C2(Cl)CC2)cc1[S+]([O-])CC(F)(F)F (centres unmarked) [Ib-22] | 0 | 30 | 90 | 90 | – | – | – | –
10 | CN/C(=N/c1cc([S+]([O-])CC(F)(F)F)c(Br)cc1Br)C(F)(F)F (centres unmarked) [Ib-24] | 30 | – | 100 | – | – | – | – | –
11 | CN(C)/C(=N/c1cc([S+]([O-])CC(F)(F)F)c(Br)cc1Br)C(F)(F)F (centres unmarked) [Ib-25] | 50 | – | 99 | – | – | – | – | –
12 | CN(C)/C(=N/c1cc([S+]([O-])CC(F)(F)F)c(Cl)cc1Cl)C(F)(F)F (centres unmarked) [Ib-26] | 0 | – | 95 | – | – | – | – | –
13 | Cc1cc(F)c(/N=C2\CCCN2CC(F)F)cc1[S+]([O-])CC(F)(F)F (centres unmarked) [Ib-33] | 0 | – | 95 | – | – | – | 0 | 60
14 | N/C(=N/c1cc([S+]([O-])CC(F)(F)F)c(Cl)cc1Br)C(F)(F)F (centres unmarked) [Ib-57] | – | – | – | – | – | – | 0 | 90
15 | Cc1cc(F)c(/N=C(\N)c2cnccn2)cc1[S+]([O-])CC(F)(F)F (centres unmarked) [Ib-62] | 0 | 0 | 90 | 90 | – | – | – | –
16 | N/C(=N/c1cc([S+]([O-])CC(F)(F)F)c(Br)cc1Cl)C(F)(F)F (centres unmarked) [Ib-68] | 80 | – | 100 | – | – | – | 0 | 98
17 | Cc1cc(F)c(/N=C2\CCCN2CC(F)(F)F)cc1[S+]([O-])CC(F)(F)F (centres unmarked) [Ib-115] | 0 | 0 | 90 | 90 | – | – | – | –
18 | Cc1cc(F)c(/N=C2\SCC(=O)N2CC(F)(F)F)cc1[S@+]([O-])CC(F)(F)F [Ib-168] | 30 | – | 95 | – | – | – | 0 | 50
